# Assay results as given in ChEMBL document CHEMBL1201862, “PubChem BioAssay data set” (2004).
#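 Assay format: 96-well plates, 48-hour exposure. Abbreviation: GI50, concentration required for 50% inhibition of growth.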 The source made the active and inactive calls. No stated cut-off is given here; in the data, active = GI50 up to about 1.1 µM and inactive = higher.
# What was measured:
# Assay in all cases: NCI anticancer screen, dose series, 48 h
# 786-0 = tested on: 786-0
# A498 = tested on: A498
# A549 = tested on: A549
# ACHN = tested on: ACHN
# BT-549 = tested on: BT-549
# CAKI-1 = tested on: CAKI-1
# CCRF-CEM = tested on: CCRF-CEM
# COLO 205 = tested on: COLO 205
# DU-145 = tested on: DU-145
# EKVX = tested on: EKVX
# HCC 2998 = tested on: HCC 2998
# HCT-116 = tested on: HCT-116
# HCT-15 = tested on: HCT-15
# HL-60 = tested on: HL-60
# HOP-62 = tested on: HOP-62
# HOP-92 = tested on: HOP-92
# HT-29 = tested on: HT-29
# Hs-578T = tested on: Hs-578T
# IGROV-1 = tested on: IGROV-1
# K562 = tested on: K562
# KM12 = tested on: KM12
# LOX IMVI = tested on: LOX IMVI
# M14 = tested on: M14
# MCF7 = tested on: MCF7
# MDA-MB-231 = tested on: MDA-MB-231
# MDA-MB-435 = tested on: MDA-MB-435
# MDA-N = tested on: MDA-N
# MOLT-4 = tested on: MOLT-4
# Malme-3M = tested on: Malme-3M
# NCI-H226 = tested on: NCI-H226
# NCI-H23 = tested on: NCI-H23
# NCI-H460 = tested on: NCI-H460
# NCI-H522 = tested on: NCI-H522
# NCI/ADR-RES = tested on: NCI/ADR-RES
# OVCAR-3 = tested on: OVCAR-3
# OVCAR-4 = tested on: OVCAR-4
# OVCAR-5 = tested on: OVCAR-5
# OVCAR-8 = tested on: OVCAR-8
# PC-3 = tested on: PC-3
# RPMI-8226 = tested on: RPMI-8226
# RXF 393 = tested on: RXF 393
# SF-268 = tested on: SF-268
# SF-295 = tested on: SF-295
# SF-539 = tested on: SF-539
# SK-MEL-28 = tested on: SK-MEL-28
# SK-MEL-2 = tested on: SK-MEL-2
# SK-MEL-5 = tested on: SK-MEL-5
# SK-OV-3 = tested on: SK-OV-3
# SN12C = tested on: SN12C
# SNB-19 = tested on: SNB-19
# SNB-75 = tested on: SNB-75
# SR = tested on: SR
# SW-620 = tested on: SW-620
# T47D = tested on: T47D
# TK-10 = tested on: TK-10
# U-251 = tested on: U-251
# UACC-257 = tested on: UACC-257
# UACC-62 = tested on: UACC-62
# UO-31 = tested on: UO-31
smiles,measurement,setting,value
CC(C)(C)c1cc2c(OC/C=C/c3ccccc3)c(c1)Cc1cc(C(C#N)(OC/C=C/c3ccccc3)OC/C=C/c3ccccc3)cc(c1OC/C=C\c1ccccc1)Cc1cc(C(C)(C)C)cc(c1OC/C=C/c1ccccc1)Cc1cc(C(C#N)(OC/C=C\c3ccccc3)OC/C=C/c3ccccc3)cc(c1OC/C=C\c1ccccc1)C2 (configuration not stated),GI50,786-0,> 100 µM (inactive)
same,GI50,A498,> 100 µM (inactive)
same,GI50,A549,> 100 µM (inactive)
same,GI50,ACHN,> 100 µM (inactive)
same,GI50,BT-549,> 100 µM (inactive)
same,GI50,CAKI-1,> 100 µM (inactive)
same,GI50,CCRF-CEM,> 100 µM (inactive)
same,GI50,COLO 205,> 100 µM (inactive)
same,GI50,DU-145,> 100 µM (inactive)
same,GI50,EKVX,> 100 µM (inactive)
same,GI50,HCC 2998,> 100 µM (inactive)
same,GI50,HCT-116,> 100 µM (inactive)
same,GI50,HCT-15,> 100 µM
same,GI50,HL-60,> 100 µM (inactive)
same,GI50,HOP-62,> 100 µM (inactive)
same,GI50,HOP-92,95.5 µM (inactive)
same,GI50,HT-29,> 100 µM (inactive)
same,GI50,Hs-578T,> 100 µM (inactive)
same,GI50,IGROV-1,> 100 µM (inactive)
same,GI50,K562,> 100 µM (inactive)
same,GI50,KM12,> 100 µM (inactive)
same,GI50,LOX IMVI,30.1 µM (inactive)
same,GI50,M14,36.6 µM (inactive)
same,GI50,MCF7,> 100 µM (inactive)
same,GI50,MDA-MB-231,30.4 µM (inactive)
same,GI50,MDA-MB-435,> 100 µM (inactive)
same,GI50,MDA-N,> 100 µM (inactive)
same,GI50,MOLT-4,> 100 µM (inactive)
same,GI50,Malme-3M,83.4 µM (inactive)
same,GI50,NCI-H226,> 100 µM (inactive)
same,GI50,NCI-H23,> 100 µM (inactive)
same,GI50,NCI-H460,> 100 µM (inactive)
same,GI50,NCI-H522,> 100 µM (inactive)
same,GI50,NCI/ADR-RES,> 100 µM (inactive)
same,GI50,OVCAR-3,> 100 µM (inactive)
same,GI50,OVCAR-4,> 100 µM (inactive)
same,GI50,OVCAR-5,> 100 µM (inactive)
same,GI50,OVCAR-8,> 100 µM (inactive)
same,GI50,PC-3,> 100 µM (inactive)
same,GI50,RPMI-8226,> 100 µM (inactive)
same,GI50,RXF 393,> 100 µM (inactive)
same,GI50,SF-268,> 100 µM (inactive)
same,GI50,SF-295,> 100 µM (inactive)
same,GI50,SF-539,> 100 µM (inactive)
same,GI50,SK-MEL-28,> 100 µM (inactive)
same,GI50,SK-MEL-2,> 100 µM (inactive)
same,GI50,SK-MEL-5,> 100 µM (inactive)
same,GI50,SK-OV-3,> 100 µM (inactive)
same,GI50,SN12C,> 100 µM (inactive)
same,GI50,SNB-19,> 100 µM (inactive)
same,GI50,SNB-75,> 100 µM (inactive)
same,GI50,SR,20.7 µM (inactive)
same,GI50,SW-620,> 100 µM (inactive)
same,GI50,T47D,> 100 µM (inactive)
same,GI50,TK-10,1.95 µM (inactive)
same,GI50,U-251,> 100 µM (inactive)
same,GI50,UACC-257,> 100 µM (inactive)
same,GI50,UACC-62,> 100 µM (inactive)
same,GI50,UO-31,> 100 µM (inactive)
Cc1nn2c(=O)c([N+](=O)[O-])c(/C=C/c3ccccc3)nc2s1,GI50,786-0,4.52 µM (inactive)
same,GI50,A498,10.4 µM (inactive)
same,GI50,A549,5.46 µM (inactive)
same,GI50,ACHN,5.32 µM (inactive)
same,GI50,BT-549,2.37 µM (inactive)
same,GI50,CAKI-1,7.78 µM (inactive)
same,GI50,CCRF-CEM,2.21 µM (inactive)
same,GI50,COLO 205,5.14 µM (inactive)
same,GI50,DU-145,3.74 µM (inactive)
same,GI50,EKVX,4.61 µM (inactive)
same,GI50,HCC 2998,8.13 µM (inactive)
same,GI50,HCT-116,3.42 µM (inactive)
same,GI50,HCT-15,3.08 µM
same,GI50,HL-60,2.28 µM (inactive)
same,GI50,HOP-62,5.43 µM (inactive)
same,GI50,HOP-92,8.28 µM (inactive)
same,GI50,HT-29,3.04 µM (inactive)
same,GI50,Hs-578T,7.33 µM (inactive)
same,GI50,IGROV-1,5.51 µM (inactive)
same,GI50,K562,2.56 µM (inactive)
same,GI50,KM12,3.13 µM (inactive)
same,GI50,LOX IMVI,1.57 µM (inactive)
same,GI50,M14,6.81 µM (inactive)
same,GI50,MCF7,1.61 µM (inactive)
same,GI50,MDA-MB-231,11.5 µM (inactive)
same,GI50,MDA-MB-435,2 µM (inactive)
same,GI50,MDA-N,2.4 µM (inactive)
same,GI50,MOLT-4,2.98 µM (inactive)
same,GI50,Malme-3M,13.3 µM (inactive)
same,GI50,NCI-H226,3.07 µM (inactive)
same,GI50,NCI-H23,11 µM (inactive)
same,GI50,NCI-H460,5.61 µM (inactive)
same,GI50,NCI-H522,3.3 µM (inactive)
same,GI50,NCI/ADR-RES,3.56 µM (inactive)
same,GI50,OVCAR-3,4.95 µM (inactive)
same,GI50,OVCAR-4,10.5 µM (inactive)
same,GI50,OVCAR-5,4.68 µM (inactive)
same,GI50,OVCAR-8,2.17 µM (inactive)
same,GI50,PC-3,4.13 µM (inactive)
same,GI50,RPMI-8226,2.43 µM (inactive)
same,GI50,RXF 393,3.41 µM (inactive)
same,GI50,SF-268,3.92 µM (inactive)
same,GI50,SF-295,17.3 µM (inactive)
same,GI50,SF-539,2.3 µM (inactive)
same,GI50,SK-MEL-28,5.33 µM (inactive)
same,GI50,SK-MEL-2,3.1 µM (inactive)
same,GI50,SK-MEL-5,3.69 µM (inactive)
same,GI50,SK-OV-3,7.33 µM (inactive)
same,GI50,SN12C,5.27 µM (inactive)
same,GI50,SNB-19,4.06 µM (inactive)
same,GI50,SNB-75,2.93 µM (inactive)
same,GI50,SR,2.43 µM (inactive)
same,GI50,SW-620,5.24 µM (inactive)
same,GI50,T47D,3.72 µM (inactive)
same,GI50,TK-10,7.31 µM (inactive)
same,GI50,U-251,2.42 µM (inactive)
same,GI50,UACC-257,8.57 µM (inactive)
same,GI50,UACC-62,5.33 µM (inactive)
same,GI50,UO-31,5.83 µM (inactive)
CN1Cc2c(ccc3c2OCO3)[C@@H]2[C@H](O)Cc3cc4c(cc3[C@@H]21)OCO4,GI50,786-0,4.09 µM (inactive)
same,GI50,A498,2.17 µM (inactive)
same,GI50,A549,4.15 µM (inactive)
same,GI50,ACHN,11 µM (inactive)
same,GI50,BT-549,2.55 µM (inactive)
same,GI50,CAKI-1,4.89 µM (inactive)
same,GI50,CCRF-CEM,2.82 µM (inactive)
same,GI50,COLO 205,2.2 µM (inactive)
same,GI50,DU-145,4.4 µM (inactive)
same,GI50,EKVX,4.51 µM (inactive)
same,GI50,HCC 2998,2.11 µM (inactive)
same,GI50,HCT-116,3.4 µM (inactive)
same,GI50,HCT-15,2.02 µM
same,GI50,HL-60,1.46 µM (inactive)
same,GI50,HOP-62,3.09 µM (inactive)
same,GI50,HOP-92,46.5 µM (inactive)
same,GI50,HT-29,2.14 µM (inactive)
same,GI50,Hs-578T,3.59 µM (inactive)
same,GI50,IGROV-1,3.87 µM (inactive)
same,GI50,K562,2.61 µM (inactive)
same,GI50,KM12,2.48 µM (inactive)
same,GI50,LOX IMVI,4.51 µM (inactive)
same,GI50,M14,2.2 µM (inactive)
same,GI50,MCF7,2.11 µM (inactive)
same,GI50,MDA-MB-231,3.29 µM (inactive)
same,GI50,MDA-MB-435,0.52 µM (active)
same,GI50,MDA-N,0.435 µM (active)
same,GI50,MOLT-4,3.08 µM (inactive)
same,GI50,Malme-3M,4.63 µM (inactive)
same,GI50,NCI-H226,3.01 µM (inactive)
same,GI50,NCI-H23,3.31 µM (inactive)
same,GI50,NCI-H460,3.01 µM (inactive)
same,GI50,NCI-H522,2.92 µM (inactive)
same,GI50,NCI/ADR-RES,2.35 µM (inactive)
same,GI50,OVCAR-3,2.2 µM (inactive)
same,GI50,OVCAR-4,> 86.7 µM (inactive)
same,GI50,OVCAR-5,12.1 µM (inactive)
same,GI50,OVCAR-8,3.62 µM (inactive)
same,GI50,PC-3,2.66 µM (inactive)
same,GI50,RPMI-8226,4.39 µM (inactive)
same,GI50,RXF 393,2.72 µM (inactive)
same,GI50,SF-268,4.82 µM (inactive)
same,GI50,SF-295,2.14 µM (inactive)
same,GI50,SF-539,2.07 µM (inactive)
same,GI50,SK-MEL-28,4.98 µM (inactive)
same,GI50,SK-MEL-2,2.68 µM (inactive)
same,GI50,SK-MEL-5,1.41 µM (inactive)
same,GI50,SK-OV-3,3.16 µM (inactive)
same,GI50,SN12C,5.06 µM (inactive)
same,GI50,SNB-19,3.41 µM (inactive)
same,GI50,SNB-75,2.62 µM (inactive)
same,GI50,SR,4.15 µM (inactive)
same,GI50,SW-620,3.62 µM (inactive)
same,GI50,T47D,9.23 µM (inactive)
same,GI50,TK-10,5.46 µM (inactive)
same,GI50,U-251,3.19 µM (inactive)
same,GI50,UACC-257,5.26 µM (inactive)
same,GI50,UACC-62,3.05 µM (inactive)
same,GI50,UO-31,6.28 µM (inactive)
